In patent US11028128B2, “Inhibition of the aggregation of transthyretin by specific binding of peptides to aggregation-driving segments” (THE REGENTS OF THE UNIVERSITY OF CALIFORNIA, priority 2016, dated 2021):
Where no end group is shown, it is not given here.

How the values were obtained:
[1] = target: recombinant wild type TTR and ATTR-D38A seeds (Homo sapiens, UniProt P02766); settings: 0.5 mg/ml recombinant TTR, 30 ng/μl ATTR-D38A seeds, increasing compound concentrations
Method: (§1) Fibril extracts were used to seed the formation of new aggregates from recombinant TTR. In order to further purify the extracts, they were treated with 1% sodium dodecyl sulfate and the soluble fraction was discarded after centrifugation at 13,000 rpm for 5 minutes. This process was repeated two times. The sample was washed with distilled water three times by centrifugation, and then sonicated in cycles of 5 seconds on, 5 seconds off, for a total of 10 minutes, at minimum intensity (18%). The protein content was measured using the Pierce™ BCA Protein Assay Kit (ThermoFisher Scientific). Seeds were added to 0.5 mg/ml recombinant TTR in a final volume of 200 μl of 5 μM thioflavin T, 10 mM Sodium Acetate pH 4.3, 100 mM KCl, and 10 mM EDTA. Unless labeled otherwise, cardiac seeds were analyzed at 30 ng/μl concentration and seeds extracted from adipose tissue were analyzed at 5 ng/μl. Thioflavin fluorescence emission was measured at 482 nm with absorption at 440 nm in a Varioskan Flash (ThermoFisher Scientific) or FLUOstar Omega (BMG LabTech) plate readers. Plates were incubated at 37° C. for 20-72 h as labeled with cycles of 9 min shake (700 rpm double orbital) and 1 min rest throughout the incubation. Measurements were taken with automatic gain if read in Varioskan Flash, or with a manual gain of 1,000 if read in FLUOstar Omega, every 10 min, bottom read. We normalized all our assays by subtracting ThT signal at initial point of incubation. Figures show ThT signal in arbitrary units (a.u.). Fibril formation was confirmed by TEM.
(§2) Amyloid seeding assays were performed as described above. 180 μM peptide was added to 0.5 mg/ml recombinant wild type TTR and 30 ng/μl ATTR-D38A seeds. Amyloid seeding was measured after 24 hour of incubation at 37° C. by ThT fluorescence. Thioflavin T signal obtained in the absence of peptide was considered 100%.

[2] = target: T1, recombinant wild type TTR (Homo sapiens, UniProt P02766); experiment: TTR aggregation assay in the absence of seeds (absorbance at 400 nm); type: biochemical; settings: 1 mg/ml recombinant wild type TTR, increasing amounts of stabilizer, 4 days
T1 construct: made in house; host or cells: E. coli
Method: Next we tested the ability of compounds and mutations that stabilize native, tetrameric TTR to halt amyloid formation induced by disease-related amyloid seeds. […] For these aggregation assays, we incubated 1 mg/ml recombinant wild type TTR with increasing amounts of stabilizers.
TTR aggregation assays are described previously (32). […] Protein aggregation was followed by absorbance at 400 nm, anti-TTR immuno-dot blot of the insoluble fraction, and/or transmission electron microscopy.

[3] = tested on: recombinant wild type TTR and ATTR-D38A seeds; settings: 180 μM peptide, 0.5 mg/ml recombinant wild type TTR, 30 ng/μl ATTR-D38A seeds, 37° C.; N-methylated peptide as noted in the cell
Method: as §1, §2

Compound | fibril formation with ATTR-D38A ex-vivo seeds in presence of stabilizer [1] | TTR aggregation in the absence of seeds [2] | B. ThT signal (20h, no inhibitor was normalized to 100%, SD = 11.42) [3]
O=C(O)c1cc(-c2ccc(F)cc2F)ccc1O [diflunisal] | did not reduce or delay fibril formation | considerably diminished in a dose-dependent manner | –
O=C(O)c1ccc2nc(-c3cc(Cl)cc(Cl)c3)oc2c1 [tafamidis] | did not reduce or delay fibril formation | considerably diminished in a dose-dependent manner | –
RRRRPFHEHAEVVFTA [TabF1] | – | – | 60.45 ± 3.90 (N-me-A12) %
RRRRPYSYSTTAVVTN (not fully specified (residue 12)) [TabH1] | – | – | 32.48 ± 2.39 (N-me-E11) %
